Data from US10617735B2, “Methods and compositions for preserving retinal ganglion cells” (Massachusetts Eye and Ear Infirmary, priority 2010, dated 2020).
Where a SMILES comes first, the peptide text is derived from it. The star is where a group is joined. Cbz = O=C(OCc1ccccc1)*; CH2F = FC*

Assays:
[1] = studies on which the dose was selected; cited from earlier work
[2] = test system: retinal ganglion cells (RGCs); experiment: Brn3b immunohistochemistry (viable RGCs) after ON injury; format: in vivo, mouse; conditions: RIP3−/− mice; seven days after ON injury
Description: (§1) Two mouse models of RGC death were utilized: optic nerve (ON) injury and N-methyl-D-aspartate (NMDA) retinal excitotoxicity. ON injury leads to RGC death as a result of primary damage to the axons, with its ensuing disruption of retrograde axonal transport (Libby et al., (2005) PLOS GENET 1:17-26) and is used as an RGC death model. In the ON injury model, mice were anesthetized and subjected to severe crush injury at 1-2 mm distance from the eyeball for 15 seconds using cross-action forceps taking special care not to interfere with the blood supply (Levkovitch-Verbin, (2004) EYE 18:1066-1074). Injured mice were randomly divided into 4 groups for treatment: vehicle group (0.5% DMSO and 0.8% cyclodextrin in PBS, n=6), ZVAD group (300 n=6), Nec-1 group (4 mM, n=6), and ZVAD plus Nec-1 group (n=6). Soon after injury, each group received an intravitreal injection (2 μl) with the respective compounds. In the NMDA retinal excitotoxicity model, NMDA (2 μl of a 0.1M stock; Sigma-Aldrich) was injected intravitreously in combination with ZVAD, Nec-1, or ZVAD plus Nec-1 and mice were separated into the aforementioned 4 groups. […]

ROS = experiment: Protein carbonyl contents in retina after ON injury (ELISA); format: in vivo, mouse; conditions: one day after ON injury; compared with vehicle group
Procedure: It has been reported that RIP kinases control ROS generation during programmed necrosis (Cho et. al., (2009) CELL 137:1112-1123, Zhang et al., (2009) SCIENCE 325:332-336)). To investigate whether ROS play a roll in oxidative retinal damage after ON injury, protein level of carbonyl contents was analyzed using ELISA using the OxiSelect™ Protein Carbonyl ELISA Kit (Cell Biolabs, San Diego, Calif.).
To investigate the role of autophagy in RGC death after ON injury, we examined the effect of 3-methyladenine (3-MA) on RGCs death after ON injury. 3-MA inhibits autophagosome formation (Seglen and Gordon, (1982) PROC NATL ACAD SCI USA 79:1889-1892)). One day after ON injury, TUNEL assay was performed. […] In addition, the number of Brn3b positive cells and IPL thickness were also analyzed. […] To investigate whether ROS play a role in oxidative retinal damage after ON injury, protein level of carbonyl contents was analyzed using an ELISA kit (Cell Biolabs, San Diego, Calif.) according to the manufacturer's instructions. One day after ON injury, carbonyl contents decreased in the 3-MA treated group compared with untreated control (FIG. 10F).

LC3-II = experiment: LC3 protein level after ON injury (western blot); format: in vivo, mouse; conditions: one day after ON injury
Procedure: For Western blot analysis, whole retinas were harvested and lysed for 30 min on ice in lysis buffer (50 mM Tris-HCl [pH 8], with 120 mM NaCl and 1% Nonidet P-40), supplemented with a mixture of proteinase inhibitors (Complete Mini; Roche Diagnostics, Basel, Switzerland). Thirty micrograms of protein per sample were separated in a 4-20% gradient sodium dodecyl sulfate-polyacrylamide gel (SDS-PAGE) (Invitrogen Corporation, Carlsbad, Calif., USA) electrophoresis and the proteins were electroblotted onto PVDF membranes. After 20 min incubation in blocking solution (Starting Block™ T20, Thermo Scientific, Waltham, Mass.), membranes were incubated with primary antibodies overnight at 4° C. Peroxidase-labeled secondary antibodies (Amersham Pharmacia Biotech, Piscataway, N.J., USA) were used and proteins were visualized with enhanced chemiluminescence technique (Amersham Pharmacia Biotech). Full list of primary antibodies and working concentrations are shown below in Table 2.
Protein levels of LC3, an autophagy marker, were also assessed by western blot analysis.

[3] = test system: caspase-8, caspase-9 and caspase-3; experiment: Caspase-8, caspase-9 and caspase-3 activities in the retina after ON injury (commercial kit); format: in vivo, mouse; conditions: one day after ON injury, intravitreal Z-VAD
Description: as §1, with “compounds.” for “compounds. In the NMDA retinal excitotoxicity model, NMDA (2 μl of a 0.1M stock; Sigma-Aldrich) was injected intravitreously in combination with ZVAD, Nec-1, or ZVAD plus Nec-1 and mice were separated into the aforementioned 4 groups.”
In human glaucoma, RGC death has been attributed mainly to apoptosis (Kerrigan et al., (1997), Tatton et al., (2001)). […] The activities of caspase-8, caspase-9 and caspase-3 were measured using a commercially available kit according to the manufacturer's instructions (APT171/131/139; Millipore, Billerica, Mass.).

In the case of `COC(=O)CC(NC(=O)C(C)NC(=O)C(NC(=O)OCc1ccccc1)C(C)C)C(=O)CF` (stereo not drawn) [Z-VAD, Benzyloxycarbonyl-Val-Ala-Asp(OMe)-fluoromethylketone] (Cbz-Val-Ala-Asp(OMe)-CH2F; configuration not given here), the “half-life inside the eye” value [1] is given as “around 6 hours”, the “number of Brn3b positive cells” value [2] is given as “further enhanced” and the “carbonyl contents (protein level, ELISA)” value (ROS) is given as “dramatically increased”. For the same molecule, the “protein level of LC3-II” value (LC3-II) was “increased more than vehicle” and the “decrease of the activities of the caspases” value [3] was 70%.
